Measured values published in patent publication US6130324A, “Amphipathic oligonucleotides and polynucleotides having potent antiviral activity” (University of Utah Research Foundation, priority 1999, dated 2000).
Where two headings read alike, the source gives them in different places.

Experiments:
HIV strain RF = assay: Inhibition of cytopathic effect of HIV strain RF in CEM-SS cells; type: cell-based, human immunodeficiency virus
Description: (§1) Assays for anti-HIV activity of poly(1-propargylinosineic) prepared according to the procedure of Examples 1-4 were conducted by Dr. Robert Buckheit, Jr. of the Southern Research Institute with strains of HIV-1 and HIV-2 in various cell lines and with cell free preparations of reverse transcriptase as previously described, Broom et al. (1995), J. Med. Chem. 38:3253-3257.

HIV strain IIIB = assay: Inhibition of cytopathic effect of HIV strain IIIB in CEM-SS cells; type: cell-based, human immunodeficiency virus; conditions: polynucleotide concentration based on average molecular weight of 100,000, read-out: EC50 against cytopathic effect, virus IIIB
Description: as §1

HIV strain SK1 = assay: Inhibition of cytopathic effect of HIV strain SK1 in CEM-SS cells; type: cell-based, human immunodeficiency virus
Description: as §1

HIV strain ROD = assay: Inhibition of cytopathic effect of HIV strain ROD in CEM-SS cells; type: cell-based, human immunodeficiency virus
Description: as §1

[1] = test system: reverse transcriptase (RT); assay: Inhibition of reverse transcriptase in a cell free supernate; type: biochemical, human immunodeficiency virus; conditions: concentrations based on average molecular weight of 100,000
Description: as §1

HCMV strain AD-169 = assay: Anti-HCMV activity, AD-169 strain in MRC-5 cell line; type: cell-based, human cytomegalovirus; conditions: HCMV AD-169 in MRC-5 cell line; for EC50: Human betaherpesvirus 5, AD169, MRC5, read-out: ED50 (50% effective dose)
Description: (§2) Assays of anti-HCMV activity were conducted by Drs. R. Sidwell and J. Huffman at Utah State University with the AD-169 strain in the MRC-5 cell line as described in Huffman et al. (1994), Nucleosides and Nucleotides 33:607-613.

MRC-5 cell line = assay: Cytotoxicity in the anti-HCMV assay (MRC-5 cell line); type: cell-based; conditions: MRC-5 cell line
Description: as §2

[2] = as above; type: cell-based; conditions: human, mrc-5 cells
Description: as §2

[3] = polynucleotide concentration based on average molecular weight of 100,000 daltons

poly(1-propargylinosinic acid)
EC50 (HIV strain RF; Table 2, RF strain, concentrations based on average molecular weight of 100,000, read-out: CEM-SS (RF), EC50): 131 nM | EC50 (HIV strain RF; polynucleotide concentration based on average molecular weight of 100,000, read-out: EC50 against cytopathic effect, virus RF): 131 nM | EC50 (HIV strain IIIB): 263 nM | EC50 (HIV strain SK1; polynucleotide concentration based on average molecular weight of 100,000, read-out: EC50 against cytopathic effect, virus SK1): 44.4 nM | EC50 (HIV strain ROD; polynucleotide concentration based on average molecular weight of 100,000, read-out: EC50 against cytopathic effect, virus ROD): 57.9 nM | EC50 [1]: 223 nM | ED50 (50% effective dose) (HCMV strain AD-169): 1.9 µg/mL | ED50 (50% effective dose), molar (HCMV strain AD-169; [3]): 19 nM | CD50 (50% cytotoxic dose) (MRC-5 cell line): 316 µg/mL | CD50 (50% cytotoxic dose), molar (MRC-5 cell line; concentration based on average molecular weight of 100,000 daltons): 3.16 µM

Nc1ccn([C@H]2CC[C@@H](CO)O2)c(=O)n1 [ddC, reference compound]
EC50 (HIV strain RF; Human immunodeficiency virus 1, polynucleotide concentration based on average molecular weight of 100,000, read-out: EC50 against cytopathic effect, virus RF): 39 nM | EC50 (HIV strain IIIB; Human immunodeficiency virus 1, IIIB): 69.3 nM | EC50 (HIV strain SK1; Human immunodeficiency virus 1, polynucleotide concentration based on average molecular weight of 100,000, read-out: EC50 against cytopathic effect, virus SK1): 25.4 nM | EC50 (HIV strain ROD; Human immunodeficiency virus 1, polynucleotide concentration based on average molecular weight of 100,000, read-out: EC50 against cytopathic effect, virus ROD): 62.1 nM

Nc1nc(O)c2ncn(COC(CO)CO)c2n1 [Ganciclovir, ganciclovir]
TI = CD50 / ED50 (HCMV strain AD-169): > 417 | EC50 (HCMV strain AD-169; [3]): 9400 nM | EC50 (HCMV strain AD-169): 2.4 µg/mL | CC50 [2]: > 1000 µg/mL
